Laboratory results taken from patent publication US20140170210A1, “METHODS FOR TREATING IMMUNOSUPPRESSION” (TRUSTEES OF DARTMOUTH COLLEGE, priority 2011, published 2014).
Read-outs that look alike come from different tables or passages of the source.

Legend:
ACAT1 [1] = biological target: T1, ACAT1 (Homo sapiens, UniProt P35610); settings: cited from earlier work
T1 sequence (P35610 1-550): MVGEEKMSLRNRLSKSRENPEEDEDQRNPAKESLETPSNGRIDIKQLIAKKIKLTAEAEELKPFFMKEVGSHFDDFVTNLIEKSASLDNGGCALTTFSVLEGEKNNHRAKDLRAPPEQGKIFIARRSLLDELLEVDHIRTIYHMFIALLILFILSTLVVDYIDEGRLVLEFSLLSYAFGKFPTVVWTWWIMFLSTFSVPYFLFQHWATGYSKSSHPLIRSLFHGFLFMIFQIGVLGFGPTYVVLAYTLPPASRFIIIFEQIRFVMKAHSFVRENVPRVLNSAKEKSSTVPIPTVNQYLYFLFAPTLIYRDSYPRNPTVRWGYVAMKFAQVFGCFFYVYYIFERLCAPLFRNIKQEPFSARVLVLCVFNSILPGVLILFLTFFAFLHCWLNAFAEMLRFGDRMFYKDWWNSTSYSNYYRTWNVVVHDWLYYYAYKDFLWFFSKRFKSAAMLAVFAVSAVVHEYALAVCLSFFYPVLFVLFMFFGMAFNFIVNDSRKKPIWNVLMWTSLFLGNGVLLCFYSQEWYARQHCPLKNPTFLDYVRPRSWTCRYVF

hACAT-2 [2] = biological target: T2, hACAT-2 (Homo sapiens, UniProt O75908); settings: cited from earlier work
T2 sequence (O75908 1-522): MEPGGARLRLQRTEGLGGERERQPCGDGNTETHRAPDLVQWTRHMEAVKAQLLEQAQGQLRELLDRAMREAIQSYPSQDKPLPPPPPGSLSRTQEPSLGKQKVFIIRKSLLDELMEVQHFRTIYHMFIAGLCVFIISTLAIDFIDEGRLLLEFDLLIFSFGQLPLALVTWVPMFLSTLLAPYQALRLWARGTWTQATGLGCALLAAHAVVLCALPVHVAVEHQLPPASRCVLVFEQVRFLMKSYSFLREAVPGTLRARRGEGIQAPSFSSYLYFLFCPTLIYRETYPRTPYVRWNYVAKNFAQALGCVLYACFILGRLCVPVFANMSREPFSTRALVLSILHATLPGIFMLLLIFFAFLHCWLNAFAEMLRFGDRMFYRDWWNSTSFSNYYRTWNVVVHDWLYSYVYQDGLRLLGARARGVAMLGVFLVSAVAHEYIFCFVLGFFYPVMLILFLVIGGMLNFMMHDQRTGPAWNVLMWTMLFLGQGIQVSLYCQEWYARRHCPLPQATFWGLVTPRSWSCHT

ACAT1 and ACAT2 = settings: cited from earlier work
[3] = tested on: atherosclerosis, familial hypercholesterolemia; settings: patients with high risk for atherosclerosis or familial hypercholesterolemia; cited from earlier work
ACAT1 [4] = biological target: T1, ACAT1; settings: cited from earlier work; remark: listed apart in the source
ACAT2 = biological target: T3, ACAT2 (Chlorocebus aethiops, UniProt O77759); settings: read-out: selective inhibition, ACAT2; cited from earlier work
T3 sequence (O77759 1-526): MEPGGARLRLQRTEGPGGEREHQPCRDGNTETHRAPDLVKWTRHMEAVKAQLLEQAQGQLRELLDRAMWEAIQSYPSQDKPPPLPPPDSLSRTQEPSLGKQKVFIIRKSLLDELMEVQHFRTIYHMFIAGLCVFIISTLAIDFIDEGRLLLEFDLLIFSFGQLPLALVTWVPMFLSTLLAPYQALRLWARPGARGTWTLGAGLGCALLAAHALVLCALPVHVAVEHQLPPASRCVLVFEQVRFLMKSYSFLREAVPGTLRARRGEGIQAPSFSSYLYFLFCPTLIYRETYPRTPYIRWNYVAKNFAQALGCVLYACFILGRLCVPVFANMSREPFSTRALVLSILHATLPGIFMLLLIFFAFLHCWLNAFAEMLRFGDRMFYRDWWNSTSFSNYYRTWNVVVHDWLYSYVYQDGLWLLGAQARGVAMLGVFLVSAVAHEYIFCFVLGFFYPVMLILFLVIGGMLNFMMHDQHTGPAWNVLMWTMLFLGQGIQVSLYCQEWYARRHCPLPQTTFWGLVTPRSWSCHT

WT and Acat1-/- BM cells = assay: Proliferation of cultured BM cells, 3H-thymidine pulse; format: cell-based, mouse; settings: for effect on higher 3H-thymidine incorporation phenotype of Acat1-/- BM cells: 10 μM U0126, 1 μM PP2, 72 hours culture with growth factors
Experimental: WT and Acat1−/− BM cells were cultured in IMDM media containing 10% FBS in the presence of indicated growth factors with or without specific inhibitors as indicated for 72 hours. Concentrations of growth factors used: 100 ng/mL for stem cell factor, 6 ng/mL for IL3; 2 ng/ml for GM-CSF. Concentration of inhibitors used: 10 μM for U0126; 1 μM for PP2. Proliferation was measured after a 3 hour ^3H-thymidine pulse in intact cells. Results are means±SEM of duplicate cultures in 3 separate experiments. **P<0.01, * P<0.05 vs. WT.
For cell proliferation measurement in vivo, the manufacturer's protocol (BD Pharmingen; BrdU flow kit) was used. Age- and sex-matched mice of both genotypes were injected intraperitoneally twice, once every 12 hours, with 0.5 mg bromodeoxyuridine (BrdU)/injection/mouse. Twenty-four hours after the first injection, BM progenitor cells (LSKs, CMPs, GMPs, and MEPs) were stained and sorted as described earlier. Proliferation of each of the sorted cell populations was measured by measuring BrdU incorporation, using the BrdU flow kit (BD Pharmingen). Proliferation measurement of BM derived-myeloid cells in culture was carried out using a known method (Yvan-Charvet et al. 2010. supra). Briefly, after lysis of red blood cells from crude BM, cells were cultured in IMDM (Gibco) containing 10% fetal bovine serum (FBS) for 2 hours to remove attached cells. The unattached cells were replated for 72 hours in various conditions as described in FIG. 4. Stem cell factor, IL3, and GM-CSF were from R&D Systems. U0126, PP2, and ApoA1 were from Sigma. Squalene synthase inhibitor (SSI) compound CP-340868 was from Pfizer. Cells were pulsed with 2 μCi/mL ^3H-thymidine for 3 hours and ^3H-thymidine incorporation was monitored by using liquid scintillation counter.

[5] = laboratory animals; cited from earlier work
ACAT1 [6] = biological target: T1, ACAT1; settings: cited from earlier work; remark: listed apart in the source
hACAT-2 [7] = biological target: T2, hACAT-2; settings: cited from earlier work; remark: listed apart in the source
[8] = rats, dogs, and humans; cited from earlier work
human macrophages = settings: in vitro; cited from earlier work
coronary atherosclerosis = settings: in combination with a statin drug, patients; cited from earlier work
[9] = tested on: amyloid plaque load and cognitive deficits; settings: cited from earlier work
[10] = tested on: cholesterol ester content in various systemic tissues; settings: 4-30 mg/kg/day, small animals; cited from earlier work
mouse ACAT1 = assay: ACAT1 knockdown by Acat1 miRs in NIH-3T3 mouse fibroblasts; format: cell-based; settings: pre-microRNAs SEQ ID NO:5 and 6
Excerpt: Four different siRNA sequences (#52-#55) targeting the mouse Acat1 (also called Soat1) gene were inserted into an endogenous mouse microRNA (miR) scaffold using Invitrogen's RNAi design tool. The artificial miRs were ligated into the mammalian expression vector pcDNA6.2-GW/EmGFP-miR. […] The miRs were delivered to the cells by using standard cDNA transfection protocol. […] These two Acat1 miR sequences and the NC miR sequence were also subcloned into an rAAV backbone vector (AAV-6P-SEWB) that contained the […]. This vector contains a strong and cell-type-nonspecific promoter that expresses Acat1 miRs in any cell type where the viral genome is expressed. For identification purpose, it also coexpresses the GFP with the miRs. These three constructs were used to produce three recombinant AAV viruses. To test the efficacy and specificity of these viruses, cultured primary hippocampal neurons were treated with the NC AAV, or with AAV that expresses miR that contain siRNA Acat1 #55. Two weeks after viral infection, the effects of AAVs on cholesteryl ester biosynthesis in neurons were tested. […] One month after injection, mice were sacrificed and the ACAT1 enzyme activities in the mouse brain homogenates were analyzed by using standard ACAT enzyme activity assay in vitro.

[11] = mouse model for Alzheimer disease

For saucerneol B, the IC50 (ACAT1 [1]) is given as 43 µM and the IC50 (hACAT-2 [2]) is given as 124 µM.

In the case of `CCCCCCCCN1CCc2c(C)c(CC(=O)O)c(C)c(NC(=O)C(C)(C)C)c21` [Pactimibe], the “relative potency on ACAT1 and ACAT2” value (ACAT1 and ACAT2) is given as “approximately equal potency” and the “efficacy as a supplement to statin treatment” value [3] is given as “lacked efficacy”.

For `COc1ccc([C@@H](O)[C@@H](C)Oc2ccc([C@H]3O[C@H](c4ccc(O[C@H](C)[C@H](O)c5ccc6c(c5)OCO6)c(OC)c4)[C@H](C)[C@H]3C)cc2OC)cc1OC` [manassantin B], the “inhibition of hACAT-2” value (hACAT-2 [2]; at 1 mM) is listed as 32%.

In the case of `CCOC(=O)OC(=O)OCC` [diethyl pyrocarbonate], the “greater activity on ACAT1 compared to ACAT-2” value (ACAT1 [4]) is given as 4 fold.

In the case of beauveriolide I, the IC50 (ACAT2) is listed as 20 µM.

For “ApoA1: a cellular cholesterol efflux mediator”, the “effect on enhanced proliferation of Acat1-/- BM cells” value (WT and Acat1-/- BM cells; ApoA1 at 50 or 100 μg/ml) was “did not diminish”.

In the case of `CSc1cc(C)nc(SC)c1NC(=O)CN1CCN(CCSc2nc3ccccc3[nH]2)CC1` [K-604], the “safety for use in vivo” value [5] is listed as “safe”.

With `CC(C)(C)n1nc(-c2ccc(Cl)cc2)c2c(N)ncnc21` [PP2] the “effect on higher 3H-thymidine incorporation phenotype of Acat1-/- BM cells” value (WT and Acat1-/- BM cells) was “partially alleviated”.

In the case of `CC(C)c1cc(C(C)C)c(CC(=O)NS(=O)(=O)Oc2c(C(C)C)cccc2C(C)C)c(C(C)C)c1` [Avasimibe], the IC50 (ACAT1 [6]) is given as 18.7 µM, the IC50 (hACAT-2 [7]) is given as 19.1 µM and the safety when administered [8] is given as “safe”. For the same molecule, the “foam cell formation in macrophages” value (human macrophages) was “reduces foam cell formation”, the “efficacy to further reduce progression of coronary atherosclerosis” value (coronary atherosclerosis) was “failed to demonstrate efficacy” and the “activity in a mouse model for Alzheimer's disease” value ([9]; 14.4 mg/kg/day) was “beneficial activity”. The amyloid plaque load [9, 11] was “significant decreases”, the cognitive deficits [9, 11] was “reduction in cognitive deficits” and the “reducing cholesterol ester content in various systemic tissues” value [10] was “effective”.

In the case of `N#CC(=C(/N)Sc1ccccc1N)/C(C#N)=C(\N)Sc1ccccc1N` [U0126], the “effect on higher 3H-thymidine incorporation phenotype of Acat1-/- BM cells” value (WT and Acat1-/- BM cells) is reported as “partially alleviated”.

B1: #54: microRNA against mouse ACAT1, target sequence SEQ ID NO:3; pre-microRNA SEQ ID NO:5 (nucleic acid)
chain: TGCTGTCCAGTATCAGAATGAACCGGGTTTTGGCCACTGACTGACCCGGTTCACTGATACTGGA
modifications: expressed or natural sequence
In the case of B1, the “mouse ACAT1 expression” value (mouse ACAT1) is reported as “decrease”.

B2: #55: microRNA against mouse ACAT1, target sequence SEQ ID NO:4; pre-microRNA SEQ ID NO:6 (nucleic acid)
chain: TGCTGTACAGTAGGAGTCCTTGGGTAGTTTTGGCCACTGACTGACTACCCAAGCTCCTACTGTA
modifications: expressed or natural sequence
With B2 the “mouse ACAT1 expression” value (mouse ACAT1) was “decrease”.
